Where “and” joins values, the source holds several entries; their conditions need not be identical. Identical values can stand only once. Entries after “also recorded” stand apart in the source; their conditions may differ. Like-named read-outs stand apart in the source and are kept apart here.
Columns and labels:
arginase [1] = details: read-out: Ki previously reported; cited from earlier work
rat liver arginase [2] = target: T1, rat liver arginase (Rattus norvegicus, UniProt P07824); experiment: continuous chromogenic arginase assay with substrate 1-nitro-3-guanidinobenzene (compound 18); type: biochemical; parameters: made in house; details: for tnpseudo (moles of inhibitor/mole of arginase): 2 millimolar compound 18 as substrate, pseudo-turnover number, smaller = better inhibition
T1 sequence (P07824 1-323): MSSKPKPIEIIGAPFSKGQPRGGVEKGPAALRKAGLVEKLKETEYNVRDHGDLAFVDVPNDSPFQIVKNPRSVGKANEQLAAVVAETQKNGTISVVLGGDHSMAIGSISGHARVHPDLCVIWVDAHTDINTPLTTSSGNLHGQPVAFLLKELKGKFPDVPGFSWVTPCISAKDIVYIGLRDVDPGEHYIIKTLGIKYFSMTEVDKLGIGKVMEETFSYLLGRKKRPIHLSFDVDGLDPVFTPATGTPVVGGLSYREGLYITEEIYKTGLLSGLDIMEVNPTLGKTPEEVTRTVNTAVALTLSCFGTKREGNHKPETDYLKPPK
Description: The activity of wild-type arginase was monitored spectrophotometrically using a Pharmacia BIOTECH ULTROSPEC™ 2000. Assays were performed in a solution comprising 100 micromolar MnCl2 and 50 millimolar bicine-NaOH (pH 9.0). […] Eadie-Hofstee plots were used to analyze the data.

arginase [3] = target: T2, arginase (Rattus norvegicus, UniProt P07824); details: cited from earlier work
T2 sequence (P07824 1-323): T1 sequence (P07824 1-323)

[4] = tested on: internal anal sphincter (IAS) smooth muscle; experiment: NANC nerve-mediated relaxation of IAS smooth muscle strips by electrical field stimulation; parameters: species or system opossum (Didelphis virginiana); details: for reversal of L-NNA-suppressed IAS relaxation: with L-NNA, L-HO-Arg and ABHA 3×10^−4 molar; for decrease in IAS tension after L-HO-Arg: 3×10^−4 molar
Source text: The entire anal canal was isolated carefully by dissection and transferred to a dissecting tray containing oxygenated (95% O2 plus 5% CO2) Krebs' solution. The composition of the Krebs' solution was as follows (in millimolar): NaCl, 118.07; KCl 4.69; […] MgSO4, 1.16; […] NaHCO3, 25 and glucose (Pufahl et al., 1995, Biochemistry 34:1930-1941; […] et al., 1993, Biochem. Biophys. Res. Commun. 196:1558-1565). The anal canal was cleaned of extraneous connective tissue and blood vessels. Following this, the anal canal was opened by making an incision along the longitudinal axis, and was pinned flat with the mucosal side facing up. The mucosa and submucosa were removed by sharp dissection. Circular smooth muscle strips were obtained from the whole circumference of the anal canal and divided into two equal strips (about 1×8 millimeters). Both ends of the muscle strips were secured with silk sutures (4-0: Ethicon Inc., Sommerville, N.J.) and used for the measurement of isometric tension. […] One end of each muscle strip was fixed to the bottom of the muscle bath with a tissue holder and the other end was attached to an isometric force transducer (model FT03; Grass Instruments Co., Quincy, Mass.) in order to measure isometric tension. Smooth muscle tension was recorded using a […] recorder (model […]; Beckman Instruments, Schiller Park, Ill.). […] J. Physiol. 255:[…]-[…]). Only those smooth muscle strips that developed spontaneous and steady tension and relaxed in response to electrical field stimulation (EFS) were used. EFS was delivered, via a pair of platinum wires, from a Grass stimulator (Model S88; Grass Instruments Co., Quincy, Mass.) connected in series to a Med-Lab […] (Med-Lab Instruments, Loveland, Colo.). […] These parameters of EFS are known to cause relaxation of IAS smooth muscle by selective activation of NANC myenteric neurons. Neurally-mediated relaxation of IAS smooth muscle strips was quantified in response to different frequencies of EFS. […] To determine the influence of arginase on NANC nerve-mediated relaxation of IAS, the effects of different doses of arginase on relaxation were first determined. […] The effectiveness of arginase inhibitors (L-OH-Arg and ABHA) on arginase-induced attenuation of EFS-induced IAS relaxation was then tested. Optimal doses of arginase and L-OH-Arg in IAS have been reported ([…] and […]. Pharmacol. Exp. Ther. 282:378-384). In order to determine the selectivity of arginase inhibitors in IAS, their effects on IAS relaxation suppressed by the NO synthase inhibitor L-NNA ([…]) were tested. […] To examine the physiological relevance of arginase inhibitors in IAS relaxation, the influence of selected concentrations of arginase inhibitors on EFS-induced IAS relaxation was examined. […] Each smooth muscle strip served as its own control. […] The results are expressed as means±standard error.

rectum arginase activity = experiment: arginase activity in rectum homogenate; type: biochemical, opossum; details: rectum; read-out: IC50 for inhibition of arginase activity, rectum homogenate
Source text: (§1) Tissue samples of the opossum internal anal sphincter muscle (IAS), adjoining rectal tissue, liver, and brain were homogenized using an ULTRATURRAX™ tissue homogenizer (Tekamr, Cincinnati, Ohio) in a solution comprising 10 millimolar Tris-HCl, 150 millimolar KCl, and 25 millimolar MnCl2, at pH 7.4. The homogenates were dialyzed overnight against the same solution. Dialyzed homogenates were centrifuged to remove insoluble material and concentrated with Amicon CENTRICON™ 30 microconcentrators to yield stock protein preparations having protein concentrations of 2.4 milligrams per milliliter for IAS smooth muscle, 3.6 milligrams per milliliter for rectal smooth muscle, 3 milligrams per milliliter for brain, and 17.5 milligrams per milliliter for liver. Protein concentrations were estimated with the Pierce Coomassie Protein Reagent kit using bovine serum albumin as a standard.
(§2) Arginase activity in tissue homogenates was evaluated using the radioactive L-[guanidino^14C]arginine assay of Rüegg and Russell (1980, Anal. Biochem. 102:206-212). Assays were performed using a solution comprising 100 millimolar CHES-NaOH and 0.1 millimolar MnCl2 at pH 9.0. The reactions were initiated by addition of 5 microliters of tissue homogenate to 45 microliters of reaction mixture that contained the CHES buffer, the appropriate concentration of arginine (0.5 to 5 millimolar) and about 5.0×10^4 counts per minute of L-[guanidino-^14C]arginine. IAS, rectal muscle, and brain homogenates were incubated with the assay mixture at room temperature for one hour, and the liver sample was incubated for 5 minutes. The reactions were stopped by addition of 200 microliters of a stop solution containing 0.25 molar acetic acid, 7 molar urea, and 10 millimolar arginase at pH 4.5. Arginase has essentially no activity at the low pH of the stop solution. [^14C] Urea was separated from non-reacted L-[guanidino-^14C]arginine by treatment with 200 μl of 1:1 v/v slurry of DOWEX™ 50W-X8 in water, and quantitated by adding 200 microliters of the supernatant from the DOWEX™ treatment to 3 milliliters of LIQUISCENT™ (National Diagnostics) for liquid scintillation counting in a Beckman LS 5000CE counter. The data were analyzed using double-reciprocal plots of the initial velocity measurements; standard errors were determined by regression analysis.
(§3) Assays in the presence of the inhibitors N^ω-hydroxy-L-arginine (1 to 100 micromolar) and ABHA (0.05 to 100 micromolar) were performed as described above. The amino acid D-ornithine served as a control in these experiments, since this amino acid, unlike L-omithine, is not an inhibitor of arginase.

IAS arginase activity = experiment: arginase activity in IAS homogenate; type: biochemical, opossum; details: IAS; read-out: IC50 for inhibition of arginase activity, IAS homogenate
Source text: as §1
as §2, with “The reactions were stopped by addition of 200 microliters of a stop solution containing 0.25 molar acetic acid, 7 molar urea, and 10 millimolar arginase at pH 4.5. Arginase has essentially no activity at the low pH of the stop solution. [^14C]” left out, “analysis. […]” for “analysis.”

liver arginase activity = experiment: arginase activity in liver homogenate; type: biochemical, opossum; details: for potency against liver arginase activity relative to non-hepatic tissues: liver versus IAS, rectum, brain
Source text: as §1, §2, §3

rat liver arginase [5] = target: T1, rat liver arginase; experiment: [14C-guanidino]-arginine arginase activity assay (Example 2); type: biochemical; details: 100 millimolar CHES, pH 9.0, 1 millimolar arginine; read-out: IC50 for inhibition of arginase
Description: Arginase activity was assessed using the ^(14C-guanidino)-arginine assay of Rüegg et al. (1980, Anal. Biochem. 102:206-212), as described (Reczkowski et al., 1994, Arch. Biochem. Biophys. 312:31-37). […] […] et al., 1994, Biochem. Biophys. Res.

brain arginase activity = experiment: arginase activity in brain homogenate; type: biochemical, opossum; details: brain; read-out: IC50 for inhibition of arginase activity, brain homogenate
Source text: as §1
as §2, with “The reactions were stopped by addition of 200 microliters of a stop solution containing 0.25 molar acetic acid, 7 molar urea, and 10 millimolar arginase at pH 4.5. Arginase has essentially no activity at the low pH of the stop solution. [^14C]” left out, “analysis. […]” for “analysis.”

arginase [6] = target: T2, arginase; experiment: isothermal titration calorimetry; type: binding; parameters: made in house
Description: All calorimetry experiments were conducted on a MCS isothermal calorimeter from MicroCal, Inc. (Northampton, Mass.). Arginase was exhaustively dialyzed against a solution comprising 100 micromolar MnCl2 and 50 millimolar bicine-NaOH (pH 8.5). […] Prior to the titration experiment, samples were de-gassed under vacuum for 5 minutes. […] The contents of the sample cell were titrated with 30-40 aliquots (2.5 microliters each) of inhibitor (an initial 1 microliters injection was made, but not used in data analysis). After each injection, the heat change was measured and converted to the corresponding enthalpy value. The reaction mixture was continuously stirred at 400 rotations per minute during titration. Control experiments were carried out by titrating the inhibitor into the buffer solution under identical experimental conditions. Data analysis was performed using ORIGIN™ software provided with the instrument. The calorimetric data are presented with the background titrations subtracted from the experimental data. The amount of heat produced per injection was calculated by integration of the area under each peak. The data were fit to the following equation, […]

rat liver arginase [7] = target: T1, rat liver arginase; experiment: radioactive L-[guanidino-14C]arginine arginase assay (Example 3); type: biochemical; parameters: made in house
Description: Assays were performed in 100 micromolar MnCl2, 100 millimolar CHES-NaOH (pH 9.0). The reactions were initiated by addition of 5 microliters of a circa 1 unit per milliliter enzyme solution to 45 microliters of reaction mixture containing CHES buffer, 1.4 millimolar L-arginine, about 5.0×10^4 counts per minute of L-[guanidino- ^14C]arginine, and variable concentrations of the appropriate inhibitor. After a 5-15 minute reaction time, 200 microliters of a stop solution containing 7 molar urea, 10 millimolar L-arginine, and 0.25 molar acetic acid (pH 4.5) was added to the reaction (arginase has essentially no activity under these conditions). [^14C]-Urea was separated from non-reacted L-[guanidino-^14 C]arginine by treatment with 200 microliters of a 1:1 (vol/vol) slurry of DOWEX™ 50 W-X8 in water, and quantitated by adding 200 microliters of the supernatant from the DOWEX™ treatment to 3 milliliters of LIQUISCINT™ (National Diagnostics) for liquid scintillation counting in a Beckman LS5000CE counter.

SMILES: NC(CCCCC(N)C(=O)O)=NO (centres unmarked) [N-hydroxyindospicine]
- Ki (arginase [1]): 20 µM

SMILES: NCCCC[C@H](NO)C(=O)O [N-hydroxylysine]
- Ki (arginase [1]): 4 µM

SMILES: N[C@@H](CSCC[Si](O)(O)O)C(=O)O [compound 16, S-(2-trihydroxysilylethyl)-L-cysteine]
- Ki (rat liver arginase [2]; assay with substrate 18, assuming competitive inhibition): 420 µM

SMILES: NCCC[C@H](N)C(=O)O [ornithine]
- Ki (arginase [3]; read-out: Ki): 1000 µM

SMILES: N=C(N)Nc1cccc([N+](=O)[O-])c1 [compound 18, 1-nitro-3-guanidinobenzene]
- kcat for arginase-catalyzed hydrolysis (rat liver arginase [2]; as substrate, monomer 35 kilodaltons): 0.09±0.02 reciprocal minutes

SMILES: N=C(N)NCCC[C@H](N)C(=O)O [L-arginine]
- kcat reported (arginase [3]; as substrate): 15,000±1200 reciprocal minutes
- Km (arginase [3]; as substrate, read-out: KM reported): 1400 ± 300 µM
- reversal of L-NNA-suppressed IAS relaxation [4]: significant and concentration-dependent reversal

SMILES: N[C@@H](CCCB(O)O)C(=O)O [compound 12, 2(S)-amino-5-boronopentanoic acid]
- tnpseudo (moles of inhibitor/mole of arginase) (rat liver arginase [2]): 420 ± 30 moles of inhibitor/mole of arginase
- fold less potent than compounds 7 and 15 (from tnpseudo) (rat liver arginase [2]; substrate 18): about 400 fold

SMILES: N=C(NO)NCC[C@H](N)C(=O)O [N-hydroxy-nor-arginine]
- Ki (arginase [1]): 0.5 µM

SMILES: N=C(NO)NCCC[C@H](N)C(=O)O [N-hydroxyarginine, N^ω-hydroxy-L-arginine]
- IC50 (rectum arginase activity): 42 µM
- IC50 (IAS arginase activity): 25 µM
- potency against liver arginase activity relative to non-hepatic tissues (liver arginase activity; listed as L-HO-Arg): 10-20 fold
- potency against liver arginase activity relative to non-hepatic tissues (liver arginase activity; listed as N^107-hydroxy-L-arginine): about 10 fold
- IC50 (liver arginase activity; liver, read-out: IC50 for inhibition of arginase activity, liver homogenate): 2.4 µM
- IC50 (rat liver arginase [5]): 80 µM
- Ki (arginase [1]): 42 µM
- IC50 (brain arginase activity): 40 µM
- decrease in IAS tension after L-HO-Arg ([4]; 0.5 Hertz EFS): 57.4±4.9%
- decrease in IAS tension after L-HO-Arg ([4]; 1 Hertz EFS): 68.8±4.9%
- effect on arginase-suppressed EFS-induced IAS relaxation ([4]; exogenous arginase, L-HO-Arg 1×10^−4 molar): antagonized the effect of arginase; also recorded: reversal
- augmentation of NANC nerve-mediated IAS relaxation by EFS ([4]; lower frequencies of EFS, listed as L-HO-Arg): significant and concentration-dependent augmentation
- reversal of L-NNA-suppressed IAS relaxation [4]: dose-dependent and complete reversal; also recorded: completely reversed

SMILES: N[C@@H](CSCCB(O)O)C(=O)O [compound 15, S-(2-boronoethyl)-L-cysteine]
- Kd (arginase [6]): 2.22 µM
- association constant (Ka) (arginase [6]; pH 8.5, 25° C.): 4.50×10^5 inverse molar
- enthalpy change (ΔH) of binding (arginase [6]; pH 8.5, 25° C.): −12.75 kilocalories per mole
- stoichiometry (n), moles bound per mole of arginase monomer (arginase [6]; pH 8.5, 25° C.): 0.96 and 0.964
- tnpseudo (moles of inhibitor/mole of arginase) (rat liver arginase [2]): 1.00 ± 0.004 moles of inhibitor/mole of arginase
- Ki (rat liver arginase [7]): 0.7 µM

SMILES: O[B-](O)(O)O [borate]
- Ki (arginase [3]; non-competitive inhibitor, read-out: KII): 260 µM
- Ki (arginase [3]; non-competitive inhibitor, read-out: KIS): 980 µM

From patent US6723710B2, “Compositions for inhibiting arginase activity” (The Trustees of the University of Pennsylvania, priority 1997, dated 2004)
